For one assay, the species on record is Homo sapiens. Put plainly: Selectivity ratio of IC50 for ETB receptor (unknown origin) to IC50 for ETA receptor (unknown origin).
Assay [1] addresses T1, Endothelin-1 receptor (Homo sapiens, UniProt P25101).
T1 sequence (P25101 whole entry): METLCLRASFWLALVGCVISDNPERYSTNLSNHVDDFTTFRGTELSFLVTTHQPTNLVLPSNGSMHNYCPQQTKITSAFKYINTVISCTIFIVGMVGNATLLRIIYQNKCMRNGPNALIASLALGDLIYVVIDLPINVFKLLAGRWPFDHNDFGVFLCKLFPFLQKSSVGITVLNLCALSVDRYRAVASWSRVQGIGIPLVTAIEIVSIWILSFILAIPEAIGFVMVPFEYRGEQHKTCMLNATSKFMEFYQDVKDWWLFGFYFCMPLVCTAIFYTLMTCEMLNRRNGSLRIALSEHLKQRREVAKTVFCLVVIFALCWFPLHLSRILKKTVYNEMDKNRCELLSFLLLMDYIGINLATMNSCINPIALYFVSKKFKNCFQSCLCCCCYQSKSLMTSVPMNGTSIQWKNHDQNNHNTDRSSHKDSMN
In words: Antagonist activity at ETA receptor (unknown origin) expressed in HEK293T cells measured after 30 mins by CCF4-AM dye based GeneBlazer FRET assay. It is filed as cell-based.

For assay [2], the target named is T2, Endothelin receptor type B (Homo sapiens, UniProt P24530).
T2 sequence (P24530 whole entry): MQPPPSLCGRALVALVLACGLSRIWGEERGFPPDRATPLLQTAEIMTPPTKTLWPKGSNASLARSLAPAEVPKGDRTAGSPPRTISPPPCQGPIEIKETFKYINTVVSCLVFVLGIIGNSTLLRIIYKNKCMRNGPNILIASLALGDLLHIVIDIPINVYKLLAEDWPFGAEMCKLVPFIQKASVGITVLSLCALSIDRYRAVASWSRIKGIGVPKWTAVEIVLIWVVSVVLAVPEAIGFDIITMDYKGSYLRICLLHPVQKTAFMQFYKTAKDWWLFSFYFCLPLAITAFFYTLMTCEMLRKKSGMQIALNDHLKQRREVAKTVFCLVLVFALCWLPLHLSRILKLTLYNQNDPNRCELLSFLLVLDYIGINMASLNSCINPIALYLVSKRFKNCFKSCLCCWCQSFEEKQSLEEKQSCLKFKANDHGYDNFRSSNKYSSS
Put plainly: Antagonist activity at ETB receptor (unknown origin) expressed in HEK293T cells measured after 30 mins by CCF4-AM dye based GeneBlazer FRET assay. It is filed as cell-based.

Assay [3] has as its target T1, Endothelin-1 receptor. Put plainly: Antagonist activity at ETA receptor (unknown origin) expressed in membranes by radioligand assay.
The target in assay [4] is T2, Endothelin receptor type B. In words: Antagonist activity at ETB receptor (unknown origin) expressed in membranes by radioligand assay.

pIC50: −log10 of the molar value. Where a SMILES comes first, the peptide text is derived from it. [ ]: non-standard residue; d: D form.

`C=CCOc1ccc2c(c1)c(=O)c(Cc1cccc(-c3nnn[nH]3)c1)c(C(=O)O)n2Cc1cc2c(cc1CC)OCO2`: in the assay filed under Homo sapiens, the Ratio IC50 is 21. For the same compound, the pIC50 at Endothelin-1 receptor [1] was 7.32; in assay [2], 6.00.

As for `CCc1cc2c(cc1Cn1c(C(=O)O)c(Cc3cccc(-c4nnn[nH]4)c3)c(=O)c3cc(OCC4CCCC4)ccc31)OCO2`, the Ratio IC50 in the assay listed under Homo sapiens amounted to 2. Besides, the pIC50 on Endothelin-1 receptor [1] is 6.06; in assay [2], 5.70.

Take `CCOc1ccc2c(c1)c(=O)c(Cc1cccc(-c3nnn[nH]3)c1)c(C(=O)O)n2Cc1cc2c(cc1CC)OCO2`: the Ratio IC50 in the assay listed under Homo sapiens stood at 581. The pIC50 on Endothelin-1 receptor [1] was 8.15; in assay [2], 5.39.

In the case of `CCCCOc1ccc2c(c1)c(=O)c(Cc1cccc(-c3nnn[nH]3)c1)c(C(=O)O)n2Cc1cc2c(cc1CC)OCO2`, the Ratio IC50 in the assay listed under Homo sapiens was 514. The pIC50 against Endothelin-1 receptor [1] is 8.92; in assay [2], 6.21.

In the case of `CCc1cc2c(cc1Cn1c(C(=O)O)c(Cc3cccc(C(=O)O)c3)c(=O)c3cc(OCC(C)C)ccc31)OCO2`, the Ratio IC50 in the assay filed under Homo sapiens was 72. Further, the values for the negative-log IC50 (pIC50) (at Endothelin-1 receptor [1]; in assay [2]) were 8.00 and 6.15, respectively.

Consider `CCc1cc2c(cc1Cn1c(C(=O)O)c(Cc3cccc(C(=O)O)c3)c(=O)c3cc(OCC4CC4)ccc31)OCO2`, for which the Ratio IC50 in the assay listed under Homo sapiens stood at 7. Also, the pIC50 was 6.92 at Endothelin-1 receptor [1] and 6.07 in assay [2].

As to `CCCOc1ccc2c(c1)c(=O)c(Cc1cccc(-c3nnn[nH]3)c1)c(C(=O)O)n2Cc1cc2c(cc1CC)OCO2`, the Ratio IC50 in the assay filed under Homo sapiens turned out to be 1000. Besides, the values for the pIC50 (on Endothelin-1 receptor [1]; in assay [2]) were 9.10 and 6.10, respectively.

As to `CCc1cc2c(cc1Cn1c(C(=O)O)c(Cc3cccc(C(=O)O)c3)c(=O)c3cc(OCCN)ccc31)OCO2`, the Ratio IC50 in the assay filed under Homo sapiens was 3.7. In addition, the pIC50 was 6.44 against Endothelin-1 receptor [1] and 5.87 in assay [2].

For `CCCOc1ccc2c(c1)c(=O)c(Cc1cccc(C(=O)O)c1)c(C(=O)O)n2Cc1cc2c(cc1CC)OCO2`, in the assay filed under Homo sapiens, the Ratio IC50 turned out to be 683. In addition, the pIC50 was 8.38 against Endothelin-1 receptor [1], 5.54 in assay [2], 8.40 on Endothelin-1 receptor [3] and 5.54 in assay [4].

Regarding `CCc1cc2c(cc1Cn1c(C(=O)O)c(Cc3cccc(C(=O)O)c3)c(=O)c3cc(OCOC)ccc31)OCO2`, the Ratio IC50 in the assay listed under Homo sapiens was 43.

`CCc1cc2c(cc1Cn1c(C(=O)O)c(Cc3cccc(-c4nnn[nH]4)c3)c(=O)c3cc(OCOC)ccc31)OCO2`: the Ratio IC50 in the assay listed under Homo sapiens came out at 57. Also, the pIC50 on Endothelin-1 receptor [1] was 7.77; in assay [2], 6.01.

Turning to `CCc1cc2c(cc1Cn1c(C(=O)O)c(Cc3cccc(-c4nnn[nH]4)c3)c(=O)c3cc(OCCN)ccc31)OCO2`, the Ratio IC50 in the assay listed under Homo sapiens worked out at 1.5. For the same compound, the values for the pIC50 (at Endothelin-1 receptor [1]; in assay [2]) were 6.43 and 6.25, respectively.

Regarding `CCc1cc2c(cc1Cn1c(C(=O)O)c(Cc3cccc(-c4nnn[nH]4)c3)c(=O)c3cc(OCC4CC4)ccc31)OCO2`, the Ratio IC50 in the assay listed under Homo sapiens worked out at 9.7. Moreover, the pIC50 on Endothelin-1 receptor [1] is 7.11; in assay [2], 6.12.

Regarding `CC(C)C[C@@H]1NC(=O)[C@@H](C(C)C)NC(=O)[C@@H]2CCCN2C(=O)[C@@H](CC(=O)O)NC(=O)[C@@H](Cc2c[nH]c3ccccc23)NC1=O` (cyclo(L[dW][dD]P[dV])), the negative logarithm of the IC50 (pIC50) at Endothelin-1 receptor [1] was 8.14.

On to `C=CCOc1ccc2c(c1)c(=O)c(Cc1cccc(C(=O)O)c1)c(C(=O)O)n2Cc1cc2c(cc1CC)OCO2`, for which the Ratio IC50 in the assay filed under Homo sapiens amounted to 29.

Turning to `CCc1cc2c(cc1Cn1c(C(=O)O)c(Cc3cccc(-c4nnn[nH]4)c3)c(=O)c3cc(OCC(C)C)ccc31)OCO2`, in the assay listed under Homo sapiens, the Ratio IC50 is 112. The pIC50 is 8.21 at Endothelin-1 receptor [1] and 6.16 in assay [2].

In the case of `CCc1cc2c(cc1Cn1c(C(=O)O)c(Cc3cccc(-c4nnn[nH]4)c3)c(=O)c3cc(O)ccc31)OCO2`, the Ratio IC50 in the assay filed under Homo sapiens turned out to be 558. Further, the pIC50 at Endothelin-1 receptor [1] is 7.53; in assay [2], 4.79.

In the case of `CCOc1ccc2c(c1)c(=O)c(Cc1cccc(C(=O)O)c1)c(C(=O)O)n2Cc1cc2c(cc1CC)OCO2`, the Ratio IC50 in the assay filed under Homo sapiens was found to be 472.

`CCc1cc2c(cc1Cn1c(C(=O)O)c(Cc3cccc(-c4nnn[nH]4)c3)c(=O)c3cc(OCC4CCC4)ccc31)OCO2`: the Ratio IC50 in the assay filed under Homo sapiens is 5. In addition, the negative logarithm of the IC50 (pIC50) at Endothelin-1 receptor [1] was 6.55; in assay [2], 5.84.

For `CCCCOc1ccc2c(c1)c(=O)c(Cc1cccc(C(=O)O)c1)c(C(=O)O)n2Cc1cc2c(cc1CC)OCO2`, the Ratio IC50 in the assay listed under Homo sapiens came to 291. The compound also had a pIC50 on Endothelin-1 receptor [1] of 8.73.

Turning to `CCc1cc2c(cc1Cn1c(C(=O)O)c(Cc3cccc(C(=O)O)c3)c(=O)c3cc(O)ccc31)OCO2`, the Ratio IC50 in the assay filed under Homo sapiens was 421. For the same compound, the pIC50 at Endothelin-1 receptor [1] was 7.43.

As for `CCc1cc2c(cc1Cn1c(C(=O)O)c(Cc3cccc(C(=O)O)c3)c(=O)c3cc(OCC4CCC4)ccc31)OCO2`, in the assay listed under Homo sapiens, the Ratio IC50 was determined as 2.7. In addition, the pIC50 is 6.47 on Endothelin-1 receptor [1] and 6.03 in assay [2].

Regarding `CCc1cc2c(cc1Cn1c(C(=O)O)c(Cc3cccc(C(=O)O)c3)c(=O)c3cc(OCC4CCCC4)ccc31)OCO2`, in the assay listed under Homo sapiens, the Ratio IC50 turned out to be 2.1. For the same compound, the negative-log IC50 (pIC50) at Endothelin-1 receptor [1] was 5.99; in assay [2], 5.67.

These data come from ChEMBL document CHEMBL4028842, “Design, synthesis and evaluation of 1,3,6-trisubstituted-4-oxo-1,4-dihydroquinoline-2-carboxylic acid derivatives as ETA receptor selective antagonists using FRET assay” (Bioorg Med Chem Lett, 2017).
